{"source": "patent US8980311B2", "about": "“Liposome-mediated ligation” (University of Georgia Research Foundation, Inc., priority 2006, dated 2015)", "conditions": "phosphate buffer containing 6 M guanidinium-hydrochloride", "note": "Where a SMILES comes first, the peptide text is derived from it. The star is where a group is joined. Propyl(2R-PamO,3-PamO) = CCCCCCCCCCCCCCCC(=O)OC[C@H](C*)OC(=O)CCCCCCCCCCCCCCC; Palmitoyl = CCCCCCCCCCCCCCCC(=O)*; SBn = c1ccc(CS*)cc1"}
{"smiles": "CCCCCCCCCCCCCCCC(=O)N[C@@H](CSC[C@@H](COC(=O)CCCCCCCCCCCCCCC)OC(=O)CCCCCCCCCCCCCCC)C(=O)N[C@@H](CO)C(=O)N[C@@H](CCCCN)C(=O)N[C@@H](CCCCN)C(=O)N[C@@H](CCCCN)C(=O)N[C@@H](CCCCN)C(=O)NCC(=O)SCc1ccccc1", "note": "[Compound 6] (Palmitoyl-C(Propyl(2R-PamO,3-PamO))SKKKKG-SBn)", "values": [{"measurement": "solubility", "result": "poor solubility"}]}
